Target: PDE1A (Homo sapiens, UniProt P54750)
Test: PDE1A enzyme inhibition (fluorescence polarization, FAM-cyclic-3',5'-AMP)
Format: biochemical
Settings: for IC50: 15 ng/mL PDE1A, 100 nM FAM-cAMP, 25 °C, 1 h; for PDE1A inhibitory activity compared to vinpocetine (in words) / fold improvement in PDE1A inhibitory activity compared to vinpocetine: relative to vinpocetine
Method: The assays were carried out as described previously. All of the enzymatic reactions were conducted at 25 °C for 1 h. The reaction mixture contains 40 mM MOPS (pH 7.5), 0.5 mM EDTA, 15 mM MgCl2, 0.15 mg/mL BSA, 1 mM DTT, 0.05% Proclin 200, 15 ng/mL PDE1A, and 100 nM FAM-cyclic-3′, 5′-AMP. The compounds were dissolved in 10% DMSO, and 5 μL of the dilution was added to a 50 μL reaction for a final concentration of 1% DMSO in all reactions. The reaction mixture was incubated at 25 °C for 1 h. Then, 100 μL of diluted binding agent was added to each well and incubated at 25 °C for 1 h with slow shaking. The fluorescence polarization of the sample was detected using an excitation filter of 360 nm and an emission filter of 480 nm. The IC50 values were calculated using non-linear regression with a normalized dose–response fit using Prism 6 (GraphPad Software, San Diego, CA, USA).

PDE1A, sequence (P54750 whole entry, species assumed): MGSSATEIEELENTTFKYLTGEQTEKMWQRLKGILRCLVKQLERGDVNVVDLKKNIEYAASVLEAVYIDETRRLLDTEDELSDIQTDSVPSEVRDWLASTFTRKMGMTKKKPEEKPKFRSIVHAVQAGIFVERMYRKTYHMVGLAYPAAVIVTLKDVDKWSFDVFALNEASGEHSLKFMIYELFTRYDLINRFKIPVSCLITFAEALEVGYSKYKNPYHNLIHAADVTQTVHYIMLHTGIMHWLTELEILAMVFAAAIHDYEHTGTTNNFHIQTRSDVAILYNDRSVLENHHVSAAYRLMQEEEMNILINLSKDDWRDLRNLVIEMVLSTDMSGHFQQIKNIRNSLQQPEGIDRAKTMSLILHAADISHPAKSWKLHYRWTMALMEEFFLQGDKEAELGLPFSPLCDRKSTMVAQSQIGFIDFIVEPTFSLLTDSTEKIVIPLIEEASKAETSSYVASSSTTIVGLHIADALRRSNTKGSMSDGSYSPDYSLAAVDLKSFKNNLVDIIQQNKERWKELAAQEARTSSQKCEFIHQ

Structure (SMILES)	IC50	fold improvement in PDE1A inhibitory activity compared to vinpocetine	PDE1A inhibitory activity compared to vinpocetine (in words)
CC[C@@]12C=C(COCc3cccc(F)c3)n3c4c(c5ccccc53)CCN(CCC1)[C@H]42 [Compound 6, (41S,13aS)-13a-ethyl-12-(((3-fluorobenzyl)oxy)methyl)-2,3,41,5,6,13a-hexahydro-1H-indolo[3,2,1-de]pyrido[3,2,1-ij][1,5]naphthyridine]	25.6 ± 1.23 µM		
CC[C@@]12C=C(COCc3ccccc3F)n3c4c(c5ccccc53)CCN(CCC1)[C@H]42 [Compound 7, (41S,13aS)-13a-ethyl-12-(((2-fluorobenzyl)oxy)methyl)-2,3,41,5,6,13a-hexahydro-1H-indolo[3,2,1-de]pyrido[3,2,1-ij][1,5]naphthyridine]	28.7 ± 1.15 µM		
CC[C@@]12C=C(COCc3ccccc3Cl)n3c4c(c5ccccc53)CCN(CCC1)[C@H]42 [Compound 10, (41S,13aS)-12-(((2-chlorobenzyl)oxy)methyl)-13a-ethyl-2,3,41,5,6,13a-hexahydro-1H-indolo[3,2,1-de]pyrido[3,2,1-ij][1,5]naphthyridine]	35 ± 1.85 µM		
CC[C@@]12C=C(COCc3ccccc3Br)n3c4c(c5ccccc53)CCN(CCC1)[C@H]42 [Compound 13, (41S,13aS)-12-(((2-bromobenzyl)oxy)methyl)-13a-ethyl-2,3,41,5,6,13a-hexahydro-1H-indolo[3,2,1-de]pyrido[3,2,1-ij][1,5]naphthyridine]	88.3 ± 3.26 µM		
CC[C@@]12C=C(COCc3ccccc3C#N)n3c4c(c5ccccc53)CCN(CCC1)[C@H]42 [Compound 15, 2-((((41S,13aS)-13a-ethyl-2,3,41,5,6,13a-hexahydro-1H-indolo[3,2,1-de]pyrido[3,2,1-ij][1,5]naphthyridin-12-yl)methoxy)methyl)benzonitrile]	45.1 ± 2.27 µM		
CC[C@@]12C=C(COCc3cccc(C(F)(F)F)c3)n3c4c(c5ccccc53)CCN(CCC1)[C@H]42 [Compound 17, (41S,13aS)-13a-ethyl-12-(((3-(trifluoromethyl)benzyl)oxy)methyl)-2,3,41,5,6,13a-hexahydro-1H-indolo[3,2,1-de]pyrido[3,2,1-ij][1,5]naphthyridine]	48.4 ± 1.44 µM		
CC[C@@]12C=C(COCc3ccc(-c4ccccc4)cc3)n3c4c(c5ccccc53)CCN(CCC1)[C@H]42 [Compound 18, (41S,13aS)-12-(([1,1′-biphenyl]-4-ylmethoxy)methyl)-13a-ethyl-2,3,41,5,6,13a-hexahydro-1H-indolo[3,2,1-de]pyrido[3,2,1-ij][1,5]naphthyridine]	44.8 ± 2.26 µM		
CC[C@@]12C=C(COCc3cccc4ccccc34)n3c4c(c5ccccc53)CCN(CCC1)[C@H]42 [Compound 19, (41S,13aS)-13a-ethyl-12-((naphthalen-1-ylmethoxy)methyl)-2,3,41,5,6,13a-hexahydro-1H-indolo[3,2,1-de]pyrido[3,2,1-ij][1,5]naphthyridine]	54.3 ± 1.84 µM		
CC[C@@]12C=C(COCc3ccc4ccccc4c3)n3c4c(c5ccccc53)CCN(CCC1)[C@H]42 [Compound 20, (41S,13aS)-13a-ethyl-12-((naphthalen-2-ylmethoxy)methyl)-2,3,41,5,6,13a-hexahydro-1H-indolo[3,2,1-de]pyrido[3,2,1-ij][1,5]naphthyridine]	89.6 ± 5.34 µM		
CC[C@@]12C=C(COCc3cc(C)cc(C)c3)n3c4c(c5ccccc53)CCN(CCC1)[C@H]42 [Compound 21, (41S,13aS)-12-(((3,5-dimethylbenzyl)oxy)methyl)-13a-ethyl-2,3,41,5,6,13a-hexahydro-1H-indolo[3,2,1-de]pyrido[3,2,1-ij][1,5]naphthyridine]	10 ± 0.85 µM		superior inhibitory activity compared to vinpocetine
CC[C@@]12C=C(COCc3cc(F)cc(F)c3)n3c4c(c5ccccc53)CCN(CCC1)[C@H]42 [Compound 22, (41S,13aS)-12-(((3,5-difluorobenzyl)oxy)methyl)-13a-ethyl-2,3,41,5,6,13a-hexahydro-1H-indolo[3,2,1-de]pyrido[3,2,1-ij][1,5]naphthyridine]	46.4 ± 1.94 µM		
CC[C@@]12C=C(COCc3cc(Br)cc(Br)c3)n3c4c(c5ccccc53)CCN(CCC1)[C@H]42 [Compound 23, (41S,13aS)-12-(((3,5-dibromobenzyl)oxy)methyl)-13a-ethyl-2,3,41,5,6,13a-hexahydro-1H-indolo[3,2,1-de]pyrido[3,2,1-ij][1,5]naphthyridine]	58.2 ± 3.2 µM		
CC[C@@]12C=C(COCc3cc(C)nn3C)n3c4c(c5ccccc53)CCN(CCC1)[C@H]42 [Compound 24, (41S,13aS)-12-(((1,3-dimethyl-1H-pyrazol-5-yl)methoxy)methyl)-13a-ethyl-2,3,41,5,6,13a-hexahydro-1H-indolo[3,2,1-de]pyrido[3,2,1-ij][1,5]naphthyridine]	63.7 ± 3.85 µM		
CCC12C=C(COCc3cnc(Cl)s3)n3c4c(c5ccccc53)CCN(CCC1)C42 [Compound 25, 2-chloro-5-((((41S,13aS)-13a-ethyl-2,3,41,5,6,13a-hexahydro-1H-indolo[3,2,1-de]pyrido[3,2,1-ij][1,5]naphthyridin-12-yl)methoxy)methyl)thiazole]	2.08 ± 0.16 µM	8 fold	superior inhibitory activity compared to vinpocetine
CCOC(=O)C1=C[C@]2(CC)CCCN3CCc4c(n1c1ccccc41)[C@@H]32 [Vinpocetine]	17.3 ± 1.21 µM		

Continued, in another order:

IC50	fold improvement in PDE1A inhibitory activity compared to vinpocetine	Structure (SMILES)	PDE1A inhibitory activity compared to vinpocetine (in words)
19.2 ± 2.25 µM		CC[C@@]12C=C(COCc3ccccc3)n3c4c(c5ccccc53)CCN(CCC1)[C@H]42 [Compound 2, (41S,13aS)-12-((benzyloxy)methyl)-13a-ethyl-2,3,41,5,6,13a-hexahydro-1H-indolo[3,2,1-de]pyrido[3,2,1-ij][1,5]naphthyridine]	
8.52 ± 0.68 µM		CC[C@@]12C=C(COCc3ccc(C)cc3)n3c4c(c5ccccc53)CCN(CCC1)[C@H]42 [Compound 3, (41S,13aS)-13a-ethyl-12-(((4-methylbenzyl)oxy)methyl)-2,3,41,5,6,13a-hexahydro-1H-indolo[3,2,1-de]pyrido[3,2,1-ij][1,5]naphthyridine]	superior inhibitory activity compared to vinpocetine
3.53 ± 0.25 µM	5 fold	CCC12C=C(COCc3cccc(C)c3)n3c4c(c5ccccc53)CCN(CCC1)C42 [Compound 4, (41S,13aS)-13a-ethyl-12-(((3-methylbenzyl)oxy)methyl)-2,3,41,5,6,13a-hexahydro-1H-indolo[3,2,1-de]pyrido[3,2,1-ij][1,5]naphthyridine]	superior inhibitory activity compared to vinpocetine
17.2 ± 3.75 µM		CC[C@@]12C=C(COCc3ccc(F)cc3)n3c4c(c5ccccc53)CCN(CCC1)[C@H]42 [Compound 5, (41S,13aS)-13a-ethyl-12-(((4-fluorobenzyl)oxy)methyl)-2,3,41,5,6,13a-hexahydro-1H-indolo[3,2,1-de]pyrido[3,2,1-ij][1,5]naphthyridine]	superior inhibitory activity compared to vinpocetine
48.8 ± 2.55 µM		CC[C@@]12C=C(COCc3ccc(Cl)cc3)n3c4c(c5ccccc53)CCN(CCC1)[C@H]42 [Compound 8, (41S,13aS)-12-(((4-chlorobenzyl)oxy)methyl)-13a-ethyl-2,3,41,5,6,13a-hexahydro-1H-indolo[3,2,1-de]pyrido[3,2,1-ij][1,5]naphthyridine]	
72.1 ± 3.89 µM		CC[C@@]12C=C(COCc3cccc(Cl)c3)n3c4c(c5ccccc53)CCN(CCC1)[C@H]42 [Compound 9, (41S,13aS)-12-(((3-chlorobenzyl)oxy)methyl)-13a-ethyl-2,3,41,5,6,13a-hexahydro-1H-indolo[3,2,1-de]pyrido[3,2,1-ij][1,5]naphthyridine]	
54.8 ± 3.42 µM		CC[C@@]12C=C(COCc3ccc(Br)cc3)n3c4c(c5ccccc53)CCN(CCC1)[C@H]42 [Compound 11, (41S,13aS)-12-(((4-bromobenzyl)oxy)methyl)-13a-ethyl-2,3,41,5,6,13a-hexahydro-1H-indolo[3,2,1-de]pyrido[3,2,1-ij][1,5]naphthyridine]	
12.5 ± 1.06 µM		CC[C@@]12C=C(COCc3cccc(Br)c3)n3c4c(c5ccccc53)CCN(CCC1)[C@H]42 [Compound 12, (41S,13aS)-12-(((3-bromobenzyl)oxy)methyl)-13a-ethyl-2,3,41,5,6,13a-hexahydro-1H-indolo[3,2,1-de]pyrido[3,2,1-ij][1,5]naphthyridine]	superior inhibitory activity compared to vinpocetine
15.6 ± 1.09 µM		CC[C@@]12C=C(COCc3ccc(C#N)cc3)n3c4c(c5ccccc53)CCN(CCC1)[C@H]42 [Compound 14, 4-((((41S,13aS)-13a-ethyl-2,3,41,5,6,13a-hexahydro-1H-indolo[3,2,1-de]pyrido[3,2,1-ij][1,5]naphthyridin-12-yl)methoxy)methyl)benzonitrile]	superior inhibitory activity compared to vinpocetine
57.7 ± 2.96 µM		CC[C@@]12C=C(COCc3ccc(C(F)(F)F)cc3)n3c4c(c5ccccc53)CCN(CCC1)[C@H]42 [Compound 16, (41S,13aS)-13a-ethyl-12-(((4-(trifluoromethyl)benzyl)oxy)methyl)-2,3,41,5,6,13a-hexahydro-1H-indolo[3,2,1-de]pyrido[3,2,1-ij][1,5]naphthyridine]	

From paper PMC10779641, “Synthesis and Activity Evaluation of Vinpocetine-Derived Indole Alkaloids” (Molecules, 2023)
